Experimental data reported in patent US7973078B2, “Sulfonamide compound or salt thereof” (Astellas Pharma Inc., priority 2006, dated 2011).
pIC50, pKi: −log10 of the molar value. Each block holds one compound with its values, some of them ahead of it.

How the values were obtained:
rat EP1 receptor [1] = target: T1, rat EP1 receptor (Rattus norvegicus, UniProt P70597); experiment: Receptor binding test using EP1 receptor-expressing cells (3H-PGE2 binding to membrane sample); design: expressed in transfected cells; host or cells: HEK293EBNA cells, pCEP4 vector, transient (2 days); crude membrane sample; settings: membrane of HEK293EBNA cells expressing rat EP1; 2.5 nM 3H-PGE2; Ki=IC50/(1+([C]/Kd))
T1 sequence (P70597 1-405): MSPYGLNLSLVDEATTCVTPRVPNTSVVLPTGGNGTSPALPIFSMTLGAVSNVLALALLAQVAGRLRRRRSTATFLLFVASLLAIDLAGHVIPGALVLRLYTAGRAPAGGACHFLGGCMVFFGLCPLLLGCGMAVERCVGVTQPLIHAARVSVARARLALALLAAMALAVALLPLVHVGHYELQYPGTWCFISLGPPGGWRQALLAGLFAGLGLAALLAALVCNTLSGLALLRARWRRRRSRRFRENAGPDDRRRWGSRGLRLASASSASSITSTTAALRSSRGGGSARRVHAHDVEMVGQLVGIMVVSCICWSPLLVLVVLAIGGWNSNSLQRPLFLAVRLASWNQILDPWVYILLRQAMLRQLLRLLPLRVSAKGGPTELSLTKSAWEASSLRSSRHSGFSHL
Description: (2) Receptor Binding Test Using EP1 Receptor-Expressing Cells
A signal peptide (MKTIIALSYIFCLVFA: SEQ ID NO: 1) and a FLAG sequence (DYKDDDDK: SEQ ID NO: 2) were introduced at the N-terminus of a rat EP1 receptor, followed by subcloning into an expression vector (Product Name: pCEP4, Invitrogen Corporation). An HEK293EBNA cell (American Type Culture Collection) was transfected with the rat EP1 expression vector using a transfection regent (Product Name: Fugene-6, Roche-Diagnostics, K.K), and then cultured for 2 days in a medium containing 10% FBS (Product Name: DMEM, Invitrogen Corporation) at 37° C. under 5% CO2. After culturing, the cells were recovered, treated with a cell lysate (20 mM Tris(hydroxymethyl)aminomethane (Tris)buffer pH7.5, 5 mM ethylene diaminetetraacetic acid(EDTA)), and ultracentrifuged (23,000 revolution, 25 minutes×2) for a rough preparation of a membrane sample.
A reaction solution containing the prepared membrane sample (15 μg) and ^3H-PGE2 (150 μl, composition: 10 mM 2-(N-morpholino)ethanesulfonic acid (MES)/potassium hydroxide(KOH) pH6.0, 1 mM EDTA, 10 mM magnesium chloride (MgCl2), 0.02% 3-[(3-Cholamidopropyl)dimethylammonio] propanesulfonate (CHAPS)) was incubated at room temperature for 1 hour. The reaction was terminated with an ice-cooled buffer, and suction-filtered under reduced pressure to trap the bound ^3H-PGE2 to a glass fiber filter (Product Name: UNIFILTER-96, GF/B, PerkinElmer Japan Co., Ltd.), so as to measure the radioactivity of the binding with a microplate scintillation counter (Product Name: TopCount, Packard) using Microscinti (Product Name: Microscinti 20, PerkElmer Japan Co., Ltd.).
The dissociation constant (Kd) and the maximum binding (Bmax) were determined using Scatchard plot (Annals of the New York Academy of Science, US, volume 51, page 660, 1949). Nonspecific bindings were determined as bindings in the presence of an excessive amount (2.5 μM) of label-free PGE2. The assessment of inhibitory effect on ^3H-PGE2 binding by the compound was carried out by adding 2.5 nM ^3H-PGE2 and the compound.
The inhibition constant Ki(nM) for each compound was obtained using the following formula: Ki=IC50/(1+([C]/Kd))
wherein [C] represents the concentration of ^3H-PGE2 employed in a reaction system.

rat EP1 receptor [2] = target: T1, rat EP1 receptor; experiment: Receptor antagonistic activity using cells expressing an EP1 receptor (PGE2-induced intracellular Ca change, FLIPR); type: cell-based; settings: HEK293 cells stably expressing rat EP1 receptors; 100 nM PGE2; Ca concentration in cells
Method: 1. Experiment to Measure a Receptor Antagonistic Activity Using Cells Expressing an EP1 Receptor
HEK293 cells (American Type Culture Collection) that stably expressed rat EP1 receptors were dispensed onto a 96-well poly-D-lysine-coated plate (Product Name: Biocoat, PDL96W black/clear, Nippon Becton Dickinson) to a 2×10^4 cells/well at the day before the experiment, and incubated overnight at 37° C. under 5% carbon dioxide (CO2) in a culture medium containing 10% fetal bovine serum (FBS) (Product Name: DMEM, Invitrogen Corporation). The culture medium was replaced by a loading buffer (a washing solution containing a 4 μM fluorescent indicator (Product Name: Fluo3-AM, Tong Ren Tang Technologies Co. Ltd.):a Hank's balanced salt solution)(HBSS), 20 mM 2-[4-(2-hydroxyethyl)-1-piperazinyl]ethanesulfonic acid (HEPES)-sodium hydroxide (NaOH), 2.5 mM Probenecid, 0.1% bovine serum albumin (BSA)), and left to stand at room temperature for 3 hours, and the cells were washed using a plate washer in which a washing solution had been set up (Product Name: ELx405, BIO-TEK instrument Corporation). The compound that had been preliminarily dissolved and diluted in a washing solution was added thereto, and set up in a system for measuring a calcium (Ca) concentration in a cell (Product Name: FLIPR, Molecular Devices Corporation). After 5 minutes, PGE2 was added to a final concentration of 100 nM, and the change in Ca concentrations in cells was measured. A difference between a maximum value and a minimum value in Ca concentrations in cells was determined, and kept as measurement data. With a response upon addition of 100 nM PGE2 being set at […], and a response upon addition of a buffer being set at 100%, the concentration causing 50% inhibition was determined as an IC50 value.
In the table, Pre represents Preparative Example No. as described later, and Ex represent Example No. as described later.

Compound: Cc1ccc(S(=O)(=O)N(CC(=O)NCc2cccc(C(=O)O)c2)c2cccc(Cl)c2C)cc1 [Ex7]
pKi (rat EP1 receptor [1]): 9.24
pIC50 (rat EP1 receptor [2]): 8.80

Compound: Cc1ccc(S(=O)(=O)N(CC(=O)NCc2cccc(OCC(=O)O)c2)c2cccc(Cl)c2C)cc1 [Ex16]
pKi (rat EP1 receptor [1]): 9.00
pIC50 (rat EP1 receptor [2]): 8.62

Compound: Cc1ccc(S(=O)(=O)N(CC(=O)NCc2ccc(C(=O)NS(C)(=O)=O)cc2)c2cccc(Cl)c2C)cc1 [Ex20]
pKi (rat EP1 receptor [1]): 9.13
pIC50 (rat EP1 receptor [2]): 8.85

pIC50 (rat EP1 receptor [2]): 9.00
Compound: COC(=O)c1ccc(CNC(=O)CN(c2cccc(Cl)c2C)S(=O)(=O)c2ccc(C)cc2)cc1 [Ex24]

pIC50 (rat EP1 receptor [2]): 8.60
Compound: Cc1ccc(S(=O)(=O)N(CC(=O)NCc2ccc(-n3cccn3)cc2)c2cccc(Cl)c2C)cc1 [Ex26]

Compound: COc1c(Cl)cccc1N(CC(=O)NCc1cccc(C(=O)O)c1)S(=O)(=O)c1ccc(C)cc1 [Ex38]
pKi (rat EP1 receptor [1]): 9.32
pIC50 (rat EP1 receptor [2]): 8.82

Compound: CCc1c(Cl)cccc1N(CC(=O)NCc1cccc(C(=O)O)c1)S(=O)(=O)c1ccc(C)cc1 [Ex40]
pKi (rat EP1 receptor [1]): 9.48
pIC50 (rat EP1 receptor [2]): 9.14

Compound: CCc1c(Cl)cccc1N(CC(=O)NCc1cccc(/C=C/C(=O)O)c1)S(=O)(=O)c1ccc(C)cc1 [Ex74]
pKi (rat EP1 receptor [1]): 9.46
pIC50 (rat EP1 receptor [2]): 9.00

Compound: COc1ccc(CNC(=O)CN(c2cccc(Cl)c2C)S(=O)(=O)c2ccc(C)cc2)cc1 [Pre1, N^2-(3-chloro-2-methylphenyl)-N-(4-methoxybenzyl)-N^2-[(4-methylphenyl)sulfonyl] glycinamide]
pKi (rat EP1 receptor [1]): 9.17
pIC50 (rat EP1 receptor [2]): 7.80

pIC50 (rat EP1 receptor [2]): 7.92
Compound: Cc1ccc(S(=O)(=O)N(CC(=O)NCc2ccncn2)c2cccc(Cl)c2C)cc1 [Pre15]
